Experiments:
Assay type in all cases: biochemical
[1] = target: T1, human α-thrombin (Homo sapiens, UniProt P00734); assay: Thrombin (fIIa) chromogenic enzyme assay; conditions: for IC50: 0 min
T1 construct: Purified human α-thrombin; purchased Enzyme Research Laboratories, Inc
Description: For screening compounds using these assays, the compounds of the present invention are dissolved in buffer to give solutions containing concentrations such that assay concentrations range from 0 to 100 micromolar. In the assays for thrombin, plasmin, t-PA, aPC, chymotrypsin, and trypsin, a chromogenic synthetic substrate is added to a solution containing test compound and the enzyme of interest and the residual catalytic activity of that enzyme is determined spectrophometrically. The IC50 of a compound of the present invention is determined from the rate of substrate turnover caused by the specific enzyme being measured. IC50 is the concentration of test compound which gives 50% inhibition of the rate of substrate turnover. Likewise, the Ki of a compound of the present invention is determined from the rate of substrate turnover caused by the specific enzyme being measured at various […] concentrations. Example A provides exemplars of in vitro assays used to select the compounds of the present invention.
(§1) The ability of compounds of the present invention to act as a selective inhibitor of thrombin activity was assessed by determining the concentration of test-compound which inhibited the activity of this enzyme by 50%, (IC50), and comparing this value to that determined for all or some of the following related serine proteases: recombinant tissue plasminogen activator (rt-PA), plasmin, activated protein C, chymotrypsin, factor Xa and trypsin.
(§2) The buffer used for all assays was HBSA (10 mM HEPES, pH 7.5, 150 mM sodium chloride, 0.1% bovine serum albumin).
The assay for IC50 determinations was conducted by combining in appropriate wells of a Corning microtiter plate, 50 microliters of HBSA, 50 microliters of the test compound at a specified concentration (covering a broad concentration range) diluted in HBSA (or HBSA alone for V0 (uninhibited velocity) measurement), and 50 microliters of the enzyme diluted in HBSA. […] The initial velocity of chromogenic substrate hydrolysis was measured by the change in absorbance at 405 nm using a Thermo Max® Kinetic Microplate Reader over a 5 minute period in which less than 5% of the added substrate was utilized. The concentration of added inhibitor which caused a 50% decrease in the initial rate of hydrolysis was defined as the IC50 value.
Enzyme activity was determined using the chromogenic substrate, Pefachrome t-PA (CH3SO2-D-hexahydrotyrosine-glycyl-L-Arginine-p-nitroaniline, obtained from Pentapharm Ltd.). The substrate was reconstituted in deionized water prior to use. Purified human α-thrombin was obtained from Enzyme Research Laboratories, Inc. The buffer used for all assays was HBSA (10 mM HEPES, pH 7.5, 150 mM sodium chloride, 0.1% bovine serum albumin).
The initial velocity of Pefachrome t-PA hydrolysis was measured by the change in absorbance at 405 nm using a Thermo Max® Kinetic Microplate Reader over a 5 minute period in which less than 5% of the added substrate was utilized. The concentration of:added inhibitor which caused a 50% decrease in the initial rate of hydrolysis was defined as the IC50 value.

[2] = target: T2, human plasmin (Homo sapiens, UniProt P00747); assay: Plasmin chromogenic enzyme assay
T2 construct: Purified human plasmin; purchased Enzyme Research Laboratories, Inc
Description: as §1, §2
(§3) The assay for IC50 determinations was conducted by combining in appropriate wells of a Corning microtiter plate, 50 microliters of HBSA, 50 microliters of the test compound at a specified concentration (covering a broad concentration range) diluted in HBSA (or HBSA alone for V0 (uninhibited velocity) measurement), and 50 microliters of the enzyme diluted in HBSA. Following a 30 minute incubation at ambient temperature, 50 microliters of the substrate at the concentrations specified below were added to the wells, yielding a final total volume of 200 microliters. The initial velocity of chromogenic substrate hydrolysis was measured by the change in absorbance at 405 nm using a Thermo Max® Kinetic Microplate Reader over a 5 minute period in which less than 5% of the added substrate was utilized. The concentration of added inhibitor which caused a 50% decrease in the initial rate of hydrolysis was defined as the IC50 value.
Plasmin catalytic activity was determined using the chromogenic substrate, S-2366 [L-pyroglutamyl-L-prolyl-L-arginine-p-nitroaniline hydrochloride], which was obtained from DiaPharma group. The substrate was made up in deionized water followed by dilution in HBSA prior to the assay in which the final concentration was 300 micromolar (about 2:.5-times Km). Purified human plasmin was obtained from Enzyme Research Laboratories, Inc. The enzyme was diluted into HBSA prior to assay in which the final concentration was 1.0 nM.

[3] = target: T3, Factor Xa (Homo sapiens, UniProt P00742); assay: Factor Xa chromogenic enzyme assay; conditions: read-out: fXa IC50
T3 construct: purchased Enzyme Research Laboratories, Inc. (South Bend, Ind.)
Description: as §1, §2, §3
Factor Xa catalytic activity was determined using the chromogenic substrate S-2765 (N-benzyloxycarbonyl-D-arginine-L-glycine-L-arginine-p-nitroaniline), obtained from DiaPharma Group (Franklin, Ohio). All substrates were reconstituted in deionized water prior to use. […] Purified human Factor X was obtained from Enzyme Research Laboratories, Inc. (South Bend, Ind.) and Factor Xa (FXa) was activated and prepared from it as described [Bock, P. E., Craig, P. A., Olson, S. T., and Singh, P. Arch. Biochem. Biophys. 273:375-388 (1989)]. The enzyme was diluted into HBSA prior to assay in which the final concentration was 0.25 nM.

[4] = target: T4, bovine pancreatic trypsin (Bos taurus, UniProt P00760); assay: Trypsin chromogenic enzyme assay
T4 sequence (P00760 24-246): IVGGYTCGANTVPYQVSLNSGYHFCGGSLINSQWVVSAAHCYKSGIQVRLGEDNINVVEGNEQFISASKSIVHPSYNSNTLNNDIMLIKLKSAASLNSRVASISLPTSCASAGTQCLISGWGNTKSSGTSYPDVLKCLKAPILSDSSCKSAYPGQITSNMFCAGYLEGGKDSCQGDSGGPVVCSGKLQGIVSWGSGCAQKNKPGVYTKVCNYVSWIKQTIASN
Description: as §1, §2, §3
Trypsin catalytic activity was determined using the chromogenic substrate, S-2222 (benzoyl-L-isoleucine-L-glutamic acid-[gamma-methyl ester]-L-arginine-p-nitroanilide), which was obtained from DiaPharma Group. […] Purified (3×-crystallized; TRL3) bovine pancreatic trypsin was obtained from Worthington Biochemical Corp. The enzyme was reconstituted in deionized water and diluted into HBSA prior to assay in which the final concentration was 0.5 nM.

T3 sequence (P00742 235-488 limits assumed): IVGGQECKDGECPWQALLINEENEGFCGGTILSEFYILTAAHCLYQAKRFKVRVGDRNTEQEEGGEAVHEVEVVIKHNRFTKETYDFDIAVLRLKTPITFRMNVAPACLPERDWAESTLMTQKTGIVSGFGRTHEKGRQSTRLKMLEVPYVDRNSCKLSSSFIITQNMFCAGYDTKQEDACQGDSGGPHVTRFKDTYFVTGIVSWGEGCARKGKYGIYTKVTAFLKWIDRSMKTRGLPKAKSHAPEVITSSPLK
T3 sequence (P00742 41-179 partner limits assumed): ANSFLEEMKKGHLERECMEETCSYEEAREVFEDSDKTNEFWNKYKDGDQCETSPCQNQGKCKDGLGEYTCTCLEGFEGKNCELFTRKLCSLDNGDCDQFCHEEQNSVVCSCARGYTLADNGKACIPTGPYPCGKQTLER
T2 sequence (P00747 581-810 limits assumed): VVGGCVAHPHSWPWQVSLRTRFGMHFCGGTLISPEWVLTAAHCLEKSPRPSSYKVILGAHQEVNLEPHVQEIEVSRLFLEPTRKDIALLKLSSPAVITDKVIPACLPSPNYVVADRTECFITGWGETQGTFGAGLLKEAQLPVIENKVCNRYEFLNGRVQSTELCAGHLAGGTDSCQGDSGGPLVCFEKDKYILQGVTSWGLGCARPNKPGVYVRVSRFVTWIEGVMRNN
T2 sequence (P00747 97-580 partner limits assumed): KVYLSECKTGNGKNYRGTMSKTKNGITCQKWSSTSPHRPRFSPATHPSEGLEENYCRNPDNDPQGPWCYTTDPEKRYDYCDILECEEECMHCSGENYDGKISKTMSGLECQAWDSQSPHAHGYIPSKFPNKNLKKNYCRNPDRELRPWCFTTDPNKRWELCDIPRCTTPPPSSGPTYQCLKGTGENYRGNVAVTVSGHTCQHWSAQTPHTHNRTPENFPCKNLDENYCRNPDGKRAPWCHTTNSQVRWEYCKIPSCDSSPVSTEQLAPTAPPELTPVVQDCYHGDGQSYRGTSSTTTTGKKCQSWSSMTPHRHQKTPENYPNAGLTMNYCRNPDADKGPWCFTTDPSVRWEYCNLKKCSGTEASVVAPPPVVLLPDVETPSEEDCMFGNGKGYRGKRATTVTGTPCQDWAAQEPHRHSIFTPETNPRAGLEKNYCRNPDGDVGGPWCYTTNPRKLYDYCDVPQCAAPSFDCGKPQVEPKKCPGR

Structure (SMILES) | Ki [1] [nM] | IC50 [1] [nM] | IC50 [2] [nM] | IC50 [3] [nM] | IC50 [4] [nM]
N=C(N)c1ccc(CNC(=O)CN2CCCC[C@H](NS(=O)(=O)c3ccc4c(c3)CCO4)C2=O)s1 [Example 24, 3-(S)-(2,3-Dihydrobenzo[b]furanyl-5-sulfonyl)amino-1-(2-amindino-5-methylenecarboxamidomethylthiophenyl)-4,5,6,7-tetrahydroazepin-2-one] | ≤ 100 | ≤ 100 | ≥ 2500 | 300 to 2500 | 100 to 300
N=C(N)N1CCC(CNC(=O)CN2CCCC[C@H](NS(=O)(=O)c3ccc4ccccc4c3)C2=O)CC1 [Example 40] | ≥ 2500 | ≥ 2500 | ≥ 2500 | ≥ 2500 | ≥ 2500
Cc1nc(N)ccc1CNC(=O)CN1CCCC[C@H](NS(=O)(=O)c2ccc3c(c2)CCO3)C1=O [Example 35, 3-(S)-(2,3-Dihydrobenzo[b]furanyl-5-sulfonyl)amino-1-(2-amino-6-methyl-5-methylenecarboxamidomethylpyridinyl)-4,5,6,7-tetrahydroazepin-2-one] | ≤ 100 | 100 to 300 | ≥ 2500 | ≥ 2500 | ≥ 2500
COc1ccc(OC)c(S(=O)(=O)N[C@H]2CCCCN(CC(=O)NCC3CCN(C(=N)N)CC3)C2=O)c1 [Example 42] | 100 to 300 | 300 to 2500 | ≥ 2500 | ≥ 2500 | ≥ 2500
N[C@H]1CC[C@H](CNC(=O)CN2CCCC[C@H](NS(=O)(=O)Cc3ccccc3)C2=O)CC1 [Example 65] | 100 to 300 | 300 to 2500 | ≥ 2500 | ≥ 2500 | ≥ 2500
N=C(N)c1ccc(CNC(=O)CN2CCCC[C@H](NS(=O)(=O)c3ccc4c(c3)CCO4)C2=O)cc1 [Example 38] | ≤ 100 | ≤ 100 | ≥ 2500 | ≥ 2500 | ≤ 100
N/C(=N\O)c1ccc(CNC(=O)CN2CCCC[C@H](NS(=O)(=O)c3ccc4c(c3)CCO4)C2=O)cc1 [Example 37] | 100 to 300 | 300 to 2500 | ≥ 2500 | ≥ 2500 | 300 to 2500
N/C(=N\O)c1ccc(CNC(=O)[C@@H]2Cc3cccc4c3N2C(=O)[C@@H](NS(=O)(=O)c2ccc3c(c2)CCO3)CC4)cc1 [Example 60, N-(2,3-Dihydrobenzo[b]furanyl-5-sulfonyl)-Haic-aminomethylphenyl-N-hydroxyamidine] | ≥ 2500 | ≥ 2500 | ≥ 2500 | ≥ 2500 | ≥ 2500
Cc1nc(N)ccc1CNC(=O)CN1CCCC[C@H](NS(=O)(=O)Cc2ccccc2)C1=O [Example 66] | ≤ 100 | 300 to 2500 | ≥ 2500 | ≥ 2500 | ≥ 2500

Next, values leading:

Ki [1] [nM] | IC50 [1] [nM] | IC50 [2] [nM] | IC50 [3] [nM] | IC50 [4] [nM] | Structure (SMILES)
100 to 300 | 300 to 2500 | ≥ 2500 | ≥ 2500 | 100 to 300 | N=C(N)c1ccc(CNC(=O)CN2CCCC[C@H](NS(=O)(=O)c3ccc4ccccc4c3)C2=O)cc1 [Example 44]
≤ 100 | 300 to 2500 | ≥ 2500 | ≥ 2500 | ≥ 2500 | COc1ccc(S(=O)(=O)N[C@H]2CCCCN(CC(=O)NCC3CCN(C(=N)N)CC3)C2=O)cc1OC [Example 43]
≤ 100 | 100 to 300 | ≥ 2500 | ≥ 2500 | 100 to 300 | N=C(N)c1ccc(CNC(=O)CN2CCCC[C@H](NS(=O)(=O)c3ccccc3)C2=O)cc1 [Example 45]
≤ 100 | 300 to 2500 | ≥ 2500 | ≥ 2500 | ≥ 2500 | N=C(N)N1CCC(CNC(=O)CN2CCCC[C@H](NS(=O)(=O)c3ccccc3)C2=O)CC1 [Example 41, 3-(Benzenesulfonyl)amino-1-(1-amidino-4-methylenecarboxamido-methylpiperidinyl)-4,5,6,7-tetrahydroazepin-2-one]
≤ 100 | ≤ 100 | ≥ 2500 | ≥ 2500 | 300 to 2500 | N=C(N)c1ccc(CNC(=O)CN2C(=O)[C@@H](NS(=O)(=O)c3ccc4c(c3)CCO4)CCc3ccccc32)cc1 [Example 55, 3-(S)-(2,3-Dihydrobenzo[b]furanyl-5-sulfonyl)amino-1-(4-amidinylphenylmethylenecarboxamido)-4,5-dihydrobenzo[f]azepin-2-one]
≤ 100 | 100 to 300 | ≥ 2500 | 300 to 2500 | 300 to 2500 | N=C(N)c1ccc(CNC(=O)CN2CCCC[C@H](NS(=O)(=O)Cc3ccccc3)C2=O)cc1 [Example 67]
100 to 300 | 300 to 2500 | ≥ 2500 | ≥ 2500 | ≥ 2500 | O=C(CN1CCCC[C@H](NS(=O)(=O)c2ccc3c(c2)CCO3)C1=O)NCc1ccc2[nH]ncc2c1 [Example 49]
≤ 100 | ≤ 100 | ≥ 2500 | 300 to 2500 | ≤ 100 | N=C(N)c1ccc(CNC(=O)[C@@H]2Cc3cccc4c3N2C(=O)[C@@H](NS(=O)(=O)c2ccc3c(c2)CCO3)CC4)cc1 [Example 61, N-(2,3-Dihydrobenzo[b]furanyl-5-sulfonyl)-Haic-aminomethylphenylamidine]
≤ 100 | ≤ 100 | ≥ 2500 | ≥ 2500 | ≥ 2500 | COc1ccc(OC)c(S(=O)(=O)N[C@H]2CCCCN(CC(=O)NCc3ccc(C(=N)N)cc3)C2=O)c1 [Example 46]
≤ 100 | ≤ 100 | ≥ 2500 | ≥ 2500 | 100 to 300 | COc1ccc(S(=O)(=O)N[C@H]2CCCCN(CC(=O)NCc3ccc(C(=N)N)cc3)C2=O)cc1OC [Example 47]
≤ 100 | 300 to 2500 | ≥ 2500 | ≥ 2500 | ≥ 2500 | N[C@H]1CC[C@H](CNC(=O)CN2CCCC[C@H](NS(=O)(=O)c3ccc4c(c3)CCO4)C2=O)CC1 [Example 48]

Reference: patent US6541467B1, “Thrombin inhibitors having a lactam at P3” (Corvas International, Inc., priority 2000, dated 2003)
